Source: PMC2075511, “Molecular evolution of type VI intermediate filament proteins” (BMC Evolutionary Biology, 2007)

Molecular target: T1, HR domain of chicken transitin (HR) (Gallus gallus, UniProt Q90831)
T1 construct: entire C-terminal heptad repeat (HR) domain, more than 50 LQVEHGD repeats; T7- or His-tag fusion protein, expressed in bacteria
Assay: malachite green phosphate release
Type: biochemical
Conditions: 10 mM MgCl2, pH 7.5, 25°C

T1 sequence (Q90831 323-1840 limits assumed): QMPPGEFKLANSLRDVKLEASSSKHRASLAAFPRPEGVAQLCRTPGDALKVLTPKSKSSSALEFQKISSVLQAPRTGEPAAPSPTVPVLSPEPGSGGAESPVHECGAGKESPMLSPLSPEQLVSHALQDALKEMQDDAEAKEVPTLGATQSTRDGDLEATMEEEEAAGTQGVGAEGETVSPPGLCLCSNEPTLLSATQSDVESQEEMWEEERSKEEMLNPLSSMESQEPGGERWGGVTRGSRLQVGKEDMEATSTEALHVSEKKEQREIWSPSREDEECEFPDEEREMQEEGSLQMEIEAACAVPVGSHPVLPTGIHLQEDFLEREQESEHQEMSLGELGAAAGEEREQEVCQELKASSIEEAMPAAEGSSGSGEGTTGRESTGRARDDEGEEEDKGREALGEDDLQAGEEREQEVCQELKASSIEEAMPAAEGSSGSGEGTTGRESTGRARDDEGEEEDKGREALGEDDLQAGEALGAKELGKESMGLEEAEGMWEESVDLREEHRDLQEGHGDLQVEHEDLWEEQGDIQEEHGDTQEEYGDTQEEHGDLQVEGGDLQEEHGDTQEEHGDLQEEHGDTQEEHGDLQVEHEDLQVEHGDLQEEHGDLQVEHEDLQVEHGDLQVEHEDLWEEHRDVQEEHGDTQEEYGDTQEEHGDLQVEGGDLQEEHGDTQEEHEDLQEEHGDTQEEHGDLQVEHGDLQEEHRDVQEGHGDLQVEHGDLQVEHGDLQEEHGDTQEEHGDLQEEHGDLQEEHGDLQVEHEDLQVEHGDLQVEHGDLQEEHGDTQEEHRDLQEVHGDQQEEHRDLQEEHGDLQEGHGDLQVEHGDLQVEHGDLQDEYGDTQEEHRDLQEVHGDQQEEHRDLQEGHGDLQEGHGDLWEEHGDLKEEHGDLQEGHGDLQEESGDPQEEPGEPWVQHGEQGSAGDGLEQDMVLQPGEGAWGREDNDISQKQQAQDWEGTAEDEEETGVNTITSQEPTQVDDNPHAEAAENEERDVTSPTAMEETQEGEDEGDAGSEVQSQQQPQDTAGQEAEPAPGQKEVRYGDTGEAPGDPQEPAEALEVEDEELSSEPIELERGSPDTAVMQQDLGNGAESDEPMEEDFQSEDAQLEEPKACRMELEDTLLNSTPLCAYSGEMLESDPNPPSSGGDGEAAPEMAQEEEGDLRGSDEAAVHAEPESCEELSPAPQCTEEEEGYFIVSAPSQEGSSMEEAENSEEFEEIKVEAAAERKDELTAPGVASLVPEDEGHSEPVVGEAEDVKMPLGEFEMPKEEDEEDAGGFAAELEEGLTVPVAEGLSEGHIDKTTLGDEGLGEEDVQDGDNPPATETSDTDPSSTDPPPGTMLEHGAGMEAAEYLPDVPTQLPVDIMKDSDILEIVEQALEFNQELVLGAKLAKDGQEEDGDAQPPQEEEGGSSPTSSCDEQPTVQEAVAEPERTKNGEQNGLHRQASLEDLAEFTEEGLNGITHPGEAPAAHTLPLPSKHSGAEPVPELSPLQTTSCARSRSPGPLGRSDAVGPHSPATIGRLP

| Structure (SMILES) | malachite green phosphate release (1 mM ATP) | malachite green phosphate release (1 mM GTP) |
| --- | --- | --- |
| Nc1ncnc2c1ncn2[C@@H]1O[C@H](COP(=O)(O)OP(=O)(O)OP(=O)(O)O)[C@@H](O)[C@H]1O [ATP] | The HR domain of transitin has ATPase (Fig. 4a) as well as GTPase (Fig. 4b) activity | – |
| Nc1nc2c(ncn2[C@@H]2O[C@H](COP(=O)(O)OP(=O)(O)OP(=O)(O)O)[C@@H](O)[C@H]2O)c(=O)[nH]1 [GTP] | – | The HR domain of transitin has ATPase (Fig. 4a) as well as GTPase (Fig. 4b) activity |
